Measurements reported in US11312719B2, “9-substituted amino triazolo quinazoline derivatives as adenosine receptor antagonists, pharmaceutical compositions and their use” (Merck Sharp & Dohme Corp., priority 2018, dated 2022).

Columns and labels:
[1] = target: human A2b adenosine receptor (Homo sapiens (Human), UniProt P29275); test: A2b radioligand filtration binding assay; details: membranes from HEK293 cells expressing human A2b receptor
Procedure, shortened: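 Membranes from HEK293 cells expressing human A2b receptor preincubated with compound 15 to 30 min at room temperature, then tritiated proprietary A2b antagonist (diluted to 14 nM before addition) added in PBS pH 7.4 for 60 min at room temperature. Bound radioactivity by filtration and scintillation; non-specific binding with 20 μM NECA; IC50 by 4-parameter logistic fit.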

[2] = target: human A2a adenosine receptor (Homo sapiens (Human), UniProt P29274); test: A2a receptor affinity radioligand binding assay ([3H] SCH58261); details: membranes from HEK293 or CHO cells expressing human A2a receptor
Sequence of human A2a adenosine receptor (P29274 whole entry): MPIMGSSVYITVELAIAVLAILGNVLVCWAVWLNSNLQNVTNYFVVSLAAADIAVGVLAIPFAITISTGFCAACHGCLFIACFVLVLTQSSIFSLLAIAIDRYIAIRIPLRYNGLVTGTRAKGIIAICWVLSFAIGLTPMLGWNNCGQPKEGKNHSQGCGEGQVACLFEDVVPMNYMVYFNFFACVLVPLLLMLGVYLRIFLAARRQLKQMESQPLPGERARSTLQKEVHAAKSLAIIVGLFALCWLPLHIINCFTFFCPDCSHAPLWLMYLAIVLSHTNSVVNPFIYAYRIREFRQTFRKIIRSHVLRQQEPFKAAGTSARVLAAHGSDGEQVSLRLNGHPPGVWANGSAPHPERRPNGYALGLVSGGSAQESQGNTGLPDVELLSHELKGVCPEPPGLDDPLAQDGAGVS
Procedure, shortened: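 Membranes from HEK293 or CHO cells expressing human A2a were preincubated 15–30 min at room temperature with compound, then incubated 60 min at room temperature with [3H]SCH58261 (diluted to 4 nM) in 50 mM Tris pH 7.4, 10 mM MgCl2, 0.005% Tween20. Bound radioactivity was collected by filtration; nonspecific binding defined with 1 μM ZM241385; IC50 from 4-parameter logistic fit.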

Sequence of human A2b adenosine receptor (P29275 whole entry): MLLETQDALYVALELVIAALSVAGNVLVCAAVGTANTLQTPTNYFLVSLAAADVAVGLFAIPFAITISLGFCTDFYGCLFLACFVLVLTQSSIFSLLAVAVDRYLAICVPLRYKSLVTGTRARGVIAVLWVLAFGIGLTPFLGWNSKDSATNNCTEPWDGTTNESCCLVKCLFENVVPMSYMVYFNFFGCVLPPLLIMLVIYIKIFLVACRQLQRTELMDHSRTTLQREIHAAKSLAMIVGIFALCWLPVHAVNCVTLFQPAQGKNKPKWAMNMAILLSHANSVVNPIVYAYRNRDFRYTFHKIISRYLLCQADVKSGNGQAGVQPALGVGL

| SMILES | IC50 [1] | IC50 [2] |
| --- | --- | --- |
| COc1cc2nc(N)n3nc([C@@H]4CCCN(c5cnc(OC(F)F)c(C)c5)C4)nc3c2cc1F [Example 24, (R)-2-(1-(6-(difluoromethoxy)-5-methylpyridin-3-yl)piperidin-3-yl)-9-fluoro-8-methoxy-[1,2,4]triazolo[1,5-c]quinazolin-5-amine] | 480 nM | 13.8 nM |
| COc1cc2nc(N)n3nc([C@@H]4CCCN(c5cc(C)c(=O)n(C(F)F)c5)C4)nc3c2cc1F [Example 25, (R)-5-(3-(5-amino-9-fluoro-8-methoxy-[1,2,4]triazolo[1,5-c]quinazolin-2-yl)piperidin-1-yl)-1-(difluoromethyl)-3-methylpyridin-2(1H)-one] | 61.7 nM | 0.6 nM |
| COc1ccc(N2CCC[C@@H](c3nc4c5cc(F)c(OC)cc5nc(N)n4n3)C2)cn1 [Example 26, (R)-9-fluoro-8-methoxy-2-(1-(6-methoxypyridin-3-yl)piperidin-3-yl)-[1,2,4]triazolo[1,5-c]quinazolin-5-amine] | 48.7 nM | 3.9 nM |
| COc1cc2nc(N)n3nc([C@@H]4CCCN(c5nc(C)n(CC(C)(C)O)n5)C4)nc3c2cc1F [Example 27, (R)-1-(3-(3-(5-amino-9-fluoro-8-methoxy-[1,2,4]triazolo[1,5-c]quinazolin-2-yl)piperidin-1-yl)-5-methyl-1H-1,2,4-triazol-1-yl)-2-methylpropan-2-ol] | 861 nM | 1.8 nM |
| COc1cc(F)cc2c1nc(N)n1nc([C@@H]3CCCN(c4cnn(CC(C)(C)O)c4)C3)nc21 [Example 28, (R)-1-(4-(3-(5-amino-9-fluoro-7-methoxy-[1,2,4]triazolo [1,5-c]quinazolin-2-yl)piperidin-1-yl)-1H-pyrazol-1-yl)-2-methylpropan-2-ol] | 76.3 nM | 2.8 nM |
| COc1cc(F)cc2c1nc(N)n1nc([C@@H]3CCCN(c4cnn(CC(C)(C)O)c4C)C3)nc21 [Example 29, (R)-1-(4-(3-(5-amino-9-fluoro-7-methoxy-[1,2,4]triazolo [1,5-c]quinazolin-2-yl)piperidin-1-yl)-5-methyl-1H-pyrazol-1-yl)-2-methylpropan-2-ol] | 301 nM | 1.5 nM |
| COc1cc(F)cc2c1nc(N)n1nc([C@@H]3CCCN(c4cn(CC(C)(C)O)nc4C)C3)nc21 [Example 30, (R)-1-(4-(3-(5-amino-9-fluoro-7-methoxy-[1,2,4]triazolo [1,5-c]quinazolin-2-yl)piperidin-l-yl)-3-methyl-1H-pyrazol-1-yl)-2-methylpropan-2-ol] | 97.9 nM | 0.4 nM |
| COc1cc(F)cc2c1nc(N)n1nc([C@@H]3CCCN(c4cnn(CC5(O)CCC5)c4)C3)nc21 [Example 31, (R)-1-((4-(3-(5-amino-9-fluoro-7-methoxy-[1,2,4]triazolo [1,5-c]quinazolin-2-yl)piperidin-l-yl)-1H-pyrazol-1-yl)methyl)cyclobutan-1-ol] | 94.8 nM | 1.7 nM |
| COc1cc(F)cc2c1nc(N)n1nc([C@@H]3CCCN(c4cnn(C(C)(C)CO)c4)C3)nc21 [Example 32, (R)-2-(4-(3-(5-amino-9-fluoro-7-methoxy-[1,2,4]triazolo[1,5-c]quinazolin-2-yl)piperidin-1-yl)-1H-pyrazol-1-yl)-2-methylpropan-1-ol] | 6.9 nM | 0.5 nM |
| COc1cc(F)cc2c1nc(N)n1nc([C@@H]3CCCN(c4ccc(OC(F)F)nc4)C3)nc21 [Example 33, (R)-2-(1-(6-(difluoromethoxy)pyridin-3-yl)piperidin-3-yl)-9-fluoro-7-methoxy-[1,2,4]triazolo[1,5-c]quinazolin-5-amine] | 17.5 nM | 3.6 nM |
| COc1ccc(N2CCC[C@@H](c3nc4c5cc(F)cc(OC)c5nc(N)n4n3)C2)cn1 [Example 34, (R)-9-fluoro-7-methoxy-2-(1-(6-methoxypyridin-3-yl)piperidin-3-yl)-[1,2,4]triazolo[1,5-c]quinazolin-5-amine] | 29.7 nM | 1.4 nM |
| COc1cc(F)cc2c1nc(N)n1nc([C@@H]3CCCN(c4ccc(OC(C)C)nc4)C3)nc21 [Example 35, (R)-9-fluoro-2-(1-(6-isopropoxypyridin-3-yl)piperidin-3-yl)-7-methoxy-[1,2,4]triazolo[1,5-c]quinazolin-5-amine] | 12.2 nM | 0.6 nM |
| COc1cc(F)cc2c1nc(N)n1nc([C@@H]3CCCN(c4ncn(CC(C)(C)O)n4)C3)nc21 [Example 36, (R)-1-(3-(3-(5-amino-9-fluoro-7-methoxy-[1,2,4]triazolo[1,5-c]quinazolin-2-yl)piperidin-1-yl)-1H-1,2,4-triazol-1-yl)-2-methylpropan-2-ol] | 93 nM | 1.6 nM |
| COc1cc(F)cc2c1nc(N)n1nc([C@@H]3CCCN(c4nc(C)n(CC(C)(C)O)n4)C3)nc21 [Example 37, (R)-1-(3-(3-(5-amino-9-fluoro-7-methoxy-[1,2,4]trazolo[1,5-c]quinazolin-2-yl)piperidin-1-yl)-5-methyl-1H-1,2,4-triazol-1-yl)-2-methylpropan-2-ol] | 468 nM | 1.1 nM |
| COc1cc2nc(N)n3nc([C@@H]4CCN(c5cnn(CC6(O)CCC6)c5)C4)nc3c2cc1F [Example 38, (R)-1((4-(3-(5-amino-9-fluoro-8-methoxy-[1,2,4]triazolo[1,5-c]quinazolin-2-yl)prrolidin-l-yl)-1H-pyrazol-1-yl)methyl)cyclobutan-1-ol] | 182 nM | 16.9 nM |
| COc1cc2nc(N)n3nc(C4CCC(C)N(c5cnn(CC(C)(C)O)c5C)C4)nc3c2cc1F [Example 52, 1-(4-((2R,5S, or 2S,5R)-5-(5-amino-9-fluoro-8-methoxy-[1,2,4]triazolo[1,5-c]quinazolin-2-yl)-2-methylpiperidin-1-yl)-5-methyl-1H-pyrazol-1-yl)-2-methylpropan-2-ol] | 3010 nM | 18.3 nM |
| COc1cc2nc(N)n3nc(C4CCC(C)N(c5cn(CC(C)(C)O)nc5C)C4)nc3c2cc1F [Example 53, 1-(4-((2R,5S, or 2S,5R)-5-(5-amino-9-fluoro-8-methoxy-[1,2,4]triazolo[1,5-c]quinazolin-2-yl)-2-methylpiperidin-1-yl)-3-methyl-1H-pyrazol-1-yl)-2-methylpropan-2-ol] | 4240 nM | 44.1 nM |
| COc1cc2nc(N)n3nc([C@@H]4CCCN(c5cnn(CCCC(C)=O)c5)C4)nc3c2cc1F [Example 93, (R)-5-(4-(3-(5-amino-9-fluoro-8-methoxy-[1,2,4]triazolo[1,5-c]quinazolin-2-yl)piperidin-1-yl)-1H-pyrazol-1-yl)pentan-2-one] | 315 nM | 5.8 nM |
| COc1cc(F)cc2c1nc(N)n1nc([C@@H]3CCCN(c4cnn(C)c4)C3)nc21 [Example 100, (R)-9-fluoro-7-methoxy-2-(1-(1-methyl-1H-pyrazol-4-yl)piperidin-3-yl)-[1,2,4]triazolo[1,5-c]quinazolin-5-amine] | 4.8 nM | 1.4 nM |
| COc1cc2nc(N)n3nc([C@@H]4CC[C@H](C)N(c5cnn(CC(C)(C)O)c5)C4)nc3c2cc1F [Example 109, 1-(4-((2S,5R)-5-(5-amino-9-fluoro-8-methoxy-[1,2,4]triazolo[1,5-c]quinazolin-2-yl)-2-methylpiperidin-1-yl)-1H-pyrazol-1-yl)-2-methylpropan-2-ol] | 7.8 nM | 0.7 nM |
| C[C@H]1CC[C@@H](c2nc3c4cc(F)c(Cl)cc4nc(N)n3n2)CN1c1cnn(CC(C)(C)O)c1 [Example 110, 1-(4-((2S,5R)-5-(5-amino-8-chloro-9-fluoro-[1,2,4]triazolo[1,5-c]quinazolin-2-yl)-2-methylpiperidin-1-yl)-1H-pyrazol-1-yl)-2-methylpropan-2-ol] | 1.8 nM | 0.2 nM |
| C[C@H]1CC[C@@H](c2nc3c4cc(F)cc(F)c4nc(N)n3n2)CN1c1cnn(CC(C)(C)O)c1 [Example 111, 1-(4-((2S,5R)-5-(5-amino-7,9-difluoro-[1,2,4]triazolo[1,5-c]quinazolin-2-yl)-2-methylpiperidin-1-yl)-1H-pyrazol-1-yl)-2-methylpropan-2-ol] | 16.5 nM | 0.7 nM |
| Cc1cc2nc(N)n3nc([C@@H]4CC[C@H](C)N(c5cnn(CC(C)(C)O)c5)C4)nc3c2cc1F [Example 112, 1-(4-((2S,5R)-5-(5-amino-9-fluoro-8-methyl-[1,2,4]triazolo [1,5-c]quinazolin-2-yl)-2-methylpiperidin-1-yl)-1H-pyrazol-1-yl)-2-methylpropan-2-ol] | 7.9 nM | 0.4 nM |
| Cn1cc(N2CCC[C@@H](c3nc4c5cc(Cl)cc(Cl)c5nc(N)n4n3)C2)cn1 [Example 113, (R)-7,9-dichloro-2-(1-(1-methyl-1H-pyrazol-4-yl)piperidin-3-yl)-[1,2,4]triazolo[1,5-c]quinazolin-5-amine] | 470 nM | 58.1 nM |
| COc1cc2nc(N)n3nc([C@@H]4CCCN(c5cn(CS(C)(=O)=O)nc5C)C4)nc3c2cc1F [Example 129, (R)-9-fluoro-8-methoxy-2-(1-(3-methyl-1-((methylsulfonyl)methyl)-1H-pyrazol-4-yl)piperidin-3-yl)-[1,2,4]triazolo[1,5-c]quinazolin-5-amine] | 470 nM | 4.1 nM |
| COc1cc2nc(N)n3nc([C@@H]4CCCN(c5cnn(CS(C)(=O)=O)c5C)C4)nc3c2cc1F [Example 130, (R)-9-fluoro-8-methoxy-2-(1-(5-methyl-1-((methylsulfonyl)methyl)-1H-pyrazol-4-yl)piperidin-3-yl)-[1,2,4]triazolo[1,5-c]quinazolin-5-amine] | 78.7 nM | 1.2 nM |
